The results in this text go back to US9340590B2 (priority 2011, dated 2016).

Where two headings read alike, the source gives them in different places. Positions of bridges follow the written chain, without caps; N, C: chain ends. Residues, ends and D or L forms follow the SMILES beside them.

What all share (experiment): cell-based
One experiment deals with hNav1.7 (Homo sapiens, UniProt Q15858). The format is cell-based.
Another experiment has as its target hNav1.5 (Homo sapiens, UniProt Q14524).
In the next experiment the target is hNav1.3 (Homo sapiens, UniProt Q9NY46). Particulars: IonWorks Quattro; clamped to −110 mV, depolarized to −10 mV, 5 min after compound; n=2; read-out: IWQ Use Nav1.3.
Where [1] appears, read: IonWorks Quattro, clamped to −110 mV, depolarized to −10 mV, 5 min after compound, n=2, read-out: IWQ Use Nav1.7.
[2] abbreviates: IonWorks Quattro, clamped to −110 mV, depolarized to −10 mV, 5 min after compound, n=2, read-out: IWQ Use Nav1.5.

Sequence of hNav1.7 (Q15858 whole entry, looked up): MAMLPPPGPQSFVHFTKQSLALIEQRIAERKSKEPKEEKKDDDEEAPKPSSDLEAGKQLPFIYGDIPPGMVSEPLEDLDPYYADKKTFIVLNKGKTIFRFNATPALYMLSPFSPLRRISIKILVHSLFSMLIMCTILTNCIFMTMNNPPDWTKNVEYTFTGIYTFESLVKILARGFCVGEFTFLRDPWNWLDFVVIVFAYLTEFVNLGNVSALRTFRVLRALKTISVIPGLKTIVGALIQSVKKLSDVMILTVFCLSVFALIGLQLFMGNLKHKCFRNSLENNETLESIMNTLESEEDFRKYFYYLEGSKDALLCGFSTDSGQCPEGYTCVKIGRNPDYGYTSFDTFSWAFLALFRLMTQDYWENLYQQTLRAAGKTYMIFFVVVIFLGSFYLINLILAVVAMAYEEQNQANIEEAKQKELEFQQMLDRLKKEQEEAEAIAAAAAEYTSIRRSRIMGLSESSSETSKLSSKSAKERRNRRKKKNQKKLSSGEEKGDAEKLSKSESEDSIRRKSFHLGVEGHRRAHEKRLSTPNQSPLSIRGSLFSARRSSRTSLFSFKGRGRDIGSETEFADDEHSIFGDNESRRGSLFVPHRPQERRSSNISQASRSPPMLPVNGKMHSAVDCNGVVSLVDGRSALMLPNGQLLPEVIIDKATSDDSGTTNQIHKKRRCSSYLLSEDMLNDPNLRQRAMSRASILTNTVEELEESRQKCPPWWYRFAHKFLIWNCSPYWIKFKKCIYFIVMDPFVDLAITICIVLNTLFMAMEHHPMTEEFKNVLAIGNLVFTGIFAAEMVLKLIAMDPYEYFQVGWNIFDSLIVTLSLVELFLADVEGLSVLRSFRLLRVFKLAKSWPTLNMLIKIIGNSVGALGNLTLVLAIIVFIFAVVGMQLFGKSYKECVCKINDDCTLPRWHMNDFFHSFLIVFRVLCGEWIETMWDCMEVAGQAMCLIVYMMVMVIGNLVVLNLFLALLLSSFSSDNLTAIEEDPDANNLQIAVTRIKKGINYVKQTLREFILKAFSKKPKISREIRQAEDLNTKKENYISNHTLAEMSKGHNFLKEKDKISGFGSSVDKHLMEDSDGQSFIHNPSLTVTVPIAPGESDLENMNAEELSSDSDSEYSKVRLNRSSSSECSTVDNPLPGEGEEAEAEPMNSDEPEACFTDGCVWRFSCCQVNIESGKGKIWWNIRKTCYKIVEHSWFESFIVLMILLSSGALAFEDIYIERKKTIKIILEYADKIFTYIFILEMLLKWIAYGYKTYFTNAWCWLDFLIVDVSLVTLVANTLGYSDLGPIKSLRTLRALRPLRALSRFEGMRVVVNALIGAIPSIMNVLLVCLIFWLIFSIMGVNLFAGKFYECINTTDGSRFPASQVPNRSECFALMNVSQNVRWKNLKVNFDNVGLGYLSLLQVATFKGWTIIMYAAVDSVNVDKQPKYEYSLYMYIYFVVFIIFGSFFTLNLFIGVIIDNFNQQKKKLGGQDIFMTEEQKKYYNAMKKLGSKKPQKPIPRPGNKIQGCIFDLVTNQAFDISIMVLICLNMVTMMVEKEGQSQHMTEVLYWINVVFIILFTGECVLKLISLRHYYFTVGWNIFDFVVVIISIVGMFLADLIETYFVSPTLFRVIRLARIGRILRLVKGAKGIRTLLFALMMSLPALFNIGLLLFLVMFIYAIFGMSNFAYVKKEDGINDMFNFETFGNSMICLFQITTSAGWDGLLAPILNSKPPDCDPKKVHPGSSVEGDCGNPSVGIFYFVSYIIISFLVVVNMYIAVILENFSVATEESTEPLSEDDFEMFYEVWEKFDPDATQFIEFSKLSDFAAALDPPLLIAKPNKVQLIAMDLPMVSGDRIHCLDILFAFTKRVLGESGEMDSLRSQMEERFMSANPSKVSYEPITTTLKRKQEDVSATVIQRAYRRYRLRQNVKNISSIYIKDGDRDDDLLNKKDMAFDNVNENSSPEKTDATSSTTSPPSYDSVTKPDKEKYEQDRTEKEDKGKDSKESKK
Sequence of hNav1.5 (Q14524 whole entry, looked up): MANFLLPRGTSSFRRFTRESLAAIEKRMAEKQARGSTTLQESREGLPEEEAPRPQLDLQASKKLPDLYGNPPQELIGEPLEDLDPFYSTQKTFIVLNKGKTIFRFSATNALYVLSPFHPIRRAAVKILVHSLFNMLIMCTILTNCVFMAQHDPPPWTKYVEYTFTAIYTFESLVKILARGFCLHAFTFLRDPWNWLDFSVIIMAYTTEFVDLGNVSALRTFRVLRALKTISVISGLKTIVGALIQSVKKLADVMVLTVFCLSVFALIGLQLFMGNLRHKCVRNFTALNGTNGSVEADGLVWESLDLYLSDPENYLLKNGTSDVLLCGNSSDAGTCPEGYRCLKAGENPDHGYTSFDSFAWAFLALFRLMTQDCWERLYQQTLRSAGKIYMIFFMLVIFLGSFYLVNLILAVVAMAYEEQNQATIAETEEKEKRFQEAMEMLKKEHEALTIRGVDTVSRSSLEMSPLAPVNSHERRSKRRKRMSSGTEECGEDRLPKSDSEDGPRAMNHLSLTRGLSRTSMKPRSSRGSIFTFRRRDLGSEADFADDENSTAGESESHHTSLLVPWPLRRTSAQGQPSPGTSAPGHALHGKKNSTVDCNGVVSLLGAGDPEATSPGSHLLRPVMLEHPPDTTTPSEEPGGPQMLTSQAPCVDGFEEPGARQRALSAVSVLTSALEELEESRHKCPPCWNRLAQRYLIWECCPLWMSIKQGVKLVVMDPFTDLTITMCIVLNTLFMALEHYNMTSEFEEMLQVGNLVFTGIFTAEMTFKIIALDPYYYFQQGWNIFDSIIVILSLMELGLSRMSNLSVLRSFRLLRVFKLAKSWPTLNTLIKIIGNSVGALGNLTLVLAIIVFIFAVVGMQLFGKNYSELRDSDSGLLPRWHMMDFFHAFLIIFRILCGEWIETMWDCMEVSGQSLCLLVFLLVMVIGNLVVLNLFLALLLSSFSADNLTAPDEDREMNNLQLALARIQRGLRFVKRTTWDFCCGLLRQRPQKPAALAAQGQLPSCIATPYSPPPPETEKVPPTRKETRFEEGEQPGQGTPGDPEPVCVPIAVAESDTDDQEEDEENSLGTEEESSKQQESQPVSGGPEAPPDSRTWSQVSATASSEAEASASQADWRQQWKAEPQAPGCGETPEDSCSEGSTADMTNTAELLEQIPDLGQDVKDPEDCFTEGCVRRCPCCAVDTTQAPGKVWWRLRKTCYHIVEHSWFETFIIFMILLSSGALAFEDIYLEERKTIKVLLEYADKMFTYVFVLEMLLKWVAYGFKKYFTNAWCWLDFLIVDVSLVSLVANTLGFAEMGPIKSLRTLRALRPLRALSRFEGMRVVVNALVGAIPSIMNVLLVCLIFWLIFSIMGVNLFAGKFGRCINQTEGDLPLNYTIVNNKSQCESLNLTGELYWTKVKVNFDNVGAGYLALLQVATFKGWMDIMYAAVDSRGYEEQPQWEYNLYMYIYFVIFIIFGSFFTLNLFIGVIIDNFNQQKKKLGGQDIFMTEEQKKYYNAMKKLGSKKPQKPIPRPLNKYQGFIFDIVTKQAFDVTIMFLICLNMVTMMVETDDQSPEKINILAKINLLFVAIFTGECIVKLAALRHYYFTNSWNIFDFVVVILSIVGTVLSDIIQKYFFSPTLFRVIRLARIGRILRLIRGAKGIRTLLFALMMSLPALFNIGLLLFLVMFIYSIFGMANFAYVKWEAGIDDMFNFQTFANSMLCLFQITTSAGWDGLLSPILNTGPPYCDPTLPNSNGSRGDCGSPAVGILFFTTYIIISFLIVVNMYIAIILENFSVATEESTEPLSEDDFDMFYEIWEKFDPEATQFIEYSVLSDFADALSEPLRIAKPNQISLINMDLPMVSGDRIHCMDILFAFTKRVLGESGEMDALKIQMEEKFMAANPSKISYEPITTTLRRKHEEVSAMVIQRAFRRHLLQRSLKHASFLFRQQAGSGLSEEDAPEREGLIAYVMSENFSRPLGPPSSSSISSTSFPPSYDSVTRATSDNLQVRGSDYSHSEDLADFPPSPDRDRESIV

Take `CC[C@H](C)[C@@H]1NC(=O)[C@@H]2CSSC[C@@H]3NC(=O)[C@H](C(C)C)NC(=O)[C@H](CC(C)C)NC(=O)[C@H](CC(N)=O)NC(=O)[C@@H]4CCCN4C(=O)[C@H](CCCNC(=N)N)NC(=O)[C@H](CSSC[C@H](NC(=O)[C@@H](N)CC(=O)O)C(=O)N[C@@H](CC(C)C)C(=O)NCC(=O)N[C@@H](Cc4ccccc4)C(=O)N[C@@H](CC[Se]C)C(=O)N[C@@H](CCCNC(=N)N)C(=O)N[C@@H](CCCCN)C(=O)N2)NC(=O)[C@H](CSSC[C@@H](C(=O)N[C@@H](CCCCN)C(=O)N[C@@H](Cc2ccc(O)cc2)C(=O)N[C@H](C(=O)N[C@@H](Cc2ccccc2)C(N)=O)C(C)C)NC(=O)[C@H](Cc2c[nH]c4ccccc24)NC(=O)[C@H](CCCCN)NC(=O)[C@H](Cc2c[nH]cn2)NC(=O)[C@H]([C@@H](C)O)NC(=O)[C@H](CCCNC(=N)N)NC(=O)[C@H](CO)NC3=O)NC(=O)[C@H](CCCCN)NC(=O)[C@H](CC(=O)O)NC(=O)[C@H](CC(N)=O)NC(=O)[C@H](CC(=O)O)NC(=O)[C@@H]2CCCN2C1=O` [SEQ ID NO: 3]: the IC50 came out at 100 nM on hNav1.7 (setting [1]), 13.9 µM at hNav1.5 (setting [2]) and 100 nM on hNav1.3.
As for `CC[C@H](C)[C@@H]1NC(=O)[C@@H]2CSSC[C@@H]3NC(=O)[C@H](C(C)C)NC(=O)[C@H](CC(C)C)NC(=O)[C@H](CC(N)=O)NC(=O)[C@@H]4CCCN4C(=O)[C@H](CCCNC(=N)N)NC(=O)[C@H](CSSC[C@H](NC(=O)[C@H](CC(=O)O)NC(=O)[C@@H](N)CCC(=O)O)C(=O)N[C@@H](CC(C)C)C(=O)NCC(=O)N[C@@H](Cc4ccccc4)C(=O)N[C@@H](CCSC)C(=O)N[C@@H](CCCNC(=N)N)C(=O)N[C@@H](CCCCN)C(=O)N2)NC(=O)[C@H](CSSC[C@@H](C(=O)N[C@@H](CCCCN)C(=O)N[C@@H](Cc2ccc(O)cc2)C(=O)N[C@H](C(=O)N[C@@H](Cc2ccccc2)C(N)=O)C(C)C)NC(=O)[C@H](Cc2c[nH]c4ccccc24)NC(=O)[C@H](CCCCN)NC(=O)[C@H](Cc2cnc[nH]2)NC(=O)[C@H]([C@@H](C)O)NC(=O)[C@H](CCCNC(=N)N)NC(=O)[C@H](CO)NC3=O)NC(=O)[C@H](CCCCN)NC(=O)[C@H](CC(=O)O)NC(=O)[C@H](CC(N)=O)NC(=O)[C@H](CC(=O)O)NC(=O)[C@@H]2CCCN2C1=O` [SEQ ID NO: 17], the results for the IC50 against hNav1.7, on hNav1.5 (IWQ Use Nav1.5) and on hNav1.3 were 260 nM, 12.8 µM and 190 nM, respectively.
With `CC[C@H](C)[C@@H]1NC(=O)[C@@H]2CSSC[C@@H]3NC(=O)[C@H](C(C)C)NC(=O)[C@H](CC(C)C)NC(=O)[C@H](CC(N)=O)NC(=O)[C@@H]4CCCN4C(=O)[C@H](CCCNC(=N)N)NC(=O)[C@H](CSSC[C@H](NC(=O)[C@@H](N)CC(=O)O)C(=O)N[C@@H](CC(C)C)C(=O)NCC(=O)N[C@@H](Cc4ccccc4)C(=O)N[C@@H](C)C(=O)N[C@@H](CCCNC(=N)N)C(=O)N[C@@H](CCCCN)C(=O)N2)NC(=O)[C@H](CSSC[C@@H](C(=O)N[C@@H](CCCCN)C(=O)N[C@@H](Cc2ccc(O)cc2)C(=O)N[C@H](C(=O)N[C@@H](Cc2ccccc2)C(N)=O)C(C)C)NC(=O)[C@H](Cc2c[nH]c4ccccc24)NC(=O)[C@H](CCCCN)NC(=O)[C@H](Cc2cnc[nH]2)NC(=O)[C@H]([C@@H](C)O)NC(=O)[C@H](CCCNC(=N)N)NC(=O)[C@H](CO)NC3=O)NC(=O)[C@H](CCCCN)NC(=O)[C@H](CC(=O)O)NC(=O)[C@H](CC(N)=O)NC(=O)[C@H](CC(=O)O)NC(=O)[C@@H]2CCCN2C1=O` [SEQ ID NO: 23] (H-DCLGFARKCIPDNDKCCRPNLVCSRTHKWCKYVF-NH2; disulfide 2-17, 9-23, 16-30), the IC50 at hNav1.7 (setting [1]) worked out at 510 nM; on hNav1.5 (setting [2]), 17.4 µM; on hNav1.3 it was 210 nM.
Regarding `CC[C@H](C)[C@@H]1NC(=O)[C@@H]2CSSC[C@@H]3NC(=O)[C@H](C(C)C)NC(=O)[C@H](CC(C)C)NC(=O)[C@H](CC(N)=O)NC(=O)[C@@H]4CCCN4C(=O)[C@H](CCCNC(=N)N)NC(=O)[C@H](CSSC[C@H](NC(=O)[C@H](CC(=O)O)NC(=O)[C@@H](N)CCCCN)C(=O)N[C@@H](CC(C)C)C(=O)NCC(=O)N[C@@H](Cc4ccccc4)C(=O)N[C@@H](CCSC)C(=O)N[C@@H](CCCNC(=N)N)C(=O)N[C@@H](CCCCN)C(=O)N2)NC(=O)[C@H](CSSC[C@@H](C(=O)N[C@@H](CCCCN)C(=O)N[C@@H](Cc2ccc(O)cc2)C(=O)N[C@H](C(=O)N[C@@H](Cc2ccccc2)C(N)=O)C(C)C)NC(=O)[C@H](Cc2c[nH]c4ccccc24)NC(=O)[C@H](CCCCN)NC(=O)[C@H](Cc2cnc[nH]2)NC(=O)[C@H]([C@@H](C)O)NC(=O)[C@H](CCCNC(=N)N)NC(=O)[C@H](CO)NC3=O)NC(=O)[C@H](CCCCN)NC(=O)[C@H](CC(=O)O)NC(=O)[C@H](CC(N)=O)NC(=O)[C@H](CC(=O)O)NC(=O)[C@@H]2CCCN2C1=O` [SEQ ID NO: 36], the IC50 at hNav1.7 (setting [1]) came out at 110 nM; on hNav1.5 (setting [2]), 8.35 µM; on hNav1.3, 100 nM.
With `CC[C@H](C)[C@@H]1NC(=O)[C@@H]2CSSC[C@@H]3NC(=O)[C@H](C(C)C)NC(=O)[C@H](CC(C)C)NC(=O)[C@H](CC(N)=O)NC(=O)[C@@H]4CCCN4C(=O)[C@H](CCCNC(=N)N)NC(=O)[C@H](CSSC[C@H](NC(=O)[C@@H](N)CC(=O)O)C(=O)N[C@@H](CCCCN)C(=O)NCC(=O)N[C@@H](Cc4ccccc4)C(=O)N[C@@H](CCSC)C(=O)N[C@@H](CCCNC(=N)N)C(=O)N[C@@H](CCCCN)C(=O)N2)NC(=O)[C@H](CSSC[C@@H](C(=O)N[C@@H](CCCCN)C(=O)N[C@@H](Cc2ccc(O)cc2)C(=O)N[C@H](C(=O)N[C@@H](Cc2ccccc2)C(N)=O)C(C)C)NC(=O)[C@H](Cc2c[nH]c4ccccc24)NC(=O)[C@H](CCCCN)NC(=O)[C@H](Cc2cnc[nH]2)NC(=O)[C@H]([C@@H](C)O)NC(=O)[C@H](CCCNC(=N)N)NC(=O)[C@H](CO)NC3=O)NC(=O)[C@H](CCCCN)NC(=O)[C@H](CC(=O)O)NC(=O)[C@H](CC(N)=O)NC(=O)[C@H](CC(=O)O)NC(=O)[C@@H]2CCCN2C1=O` [SEQ ID NO: 38] (H-DCKGFMRKCIPDNDKCCRPNLVCSRTHKWCKYVF-NH2; disulfide 2-17, 9-23, 16-30), the IC50 at hNav1.7 (setting [1]) stood at 80 nM; at hNav1.5 (setting [2]), 6.95 µM; at hNav1.3 it was 60 nM.
On to `CC[C@H](C)[C@@H]1NC(=O)[C@@H]2CSSC[C@@H]3NC(=O)[C@H](C(C)C)NC(=O)[C@H](CC(C)C)NC(=O)[C@H](CC(N)=O)NC(=O)[C@@H]4CCCN4C(=O)[C@H](CCCNC(=N)N)NC(=O)[C@H](CSSC[C@H](NC(=O)[C@H](CC(=O)O)NC(=O)[C@@H](N)CCCNC(=N)N)C(=O)N[C@@H](CC(C)C)C(=O)NCC(=O)N[C@@H](Cc4ccccc4)C(=O)N[C@@H](CCSC)C(=O)N[C@@H](CCCNC(=N)N)C(=O)N[C@@H](CCCCN)C(=O)N2)NC(=O)[C@H](CSSC[C@@H](C(=O)N[C@@H](CCCCN)C(=O)N[C@@H](Cc2ccc(O)cc2)C(=O)N[C@H](C(=O)N[C@@H](Cc2ccccc2)C(N)=O)C(C)C)NC(=O)[C@H](Cc2c[nH]c4ccccc24)NC(=O)[C@H](CCCCN)NC(=O)[C@H](Cc2c[nH]cn2)NC(=O)[C@H]([C@@H](C)O)NC(=O)[C@H](CCCNC(=N)N)NC(=O)[C@H](CO)NC3=O)NC(=O)[C@H](CCCCN)NC(=O)[C@H](CC(=O)O)NC(=O)[C@H](CC(N)=O)NC(=O)[C@H](CC(=O)O)NC(=O)[C@@H]2CCCN2C1=O` [SEQ ID NO: 61], for which the IC50 came out at 170 nM on hNav1.7 (setting [1]), 15.1 µM on hNav1.5 (setting [2]) and 80 nM on hNav1.3.
